Laboratory results published in patent US20100280061A1, “NOVEL ANALGESIC THAT BINDS FILAMIN A” (priority 2009, published 2010).

How the values were obtained:
mu opiate receptor (MOR) = biological target: T1, mu opiate receptor (MOR) (Rattus norvegicus, UniProt P33535); assay: [35S]GTPγS binding assay using striatal membranes (MOR agonist activity); assay type: biochemical; parameters: MOR agonist activity, [35S]GTPγS binding to Gαo, 0.1 μM / MOR agonist activity, [35S]GTPγS binding to Gαo, 1 μM / MOR agonist activity, [35S]GTPγS binding to Gαo, 1 μM + BFNA: reference not given here; conditions: for MOR agonist activity, [35S]GTPγS binding to Gαo, 0.1 μM: 0.1 μM compound; for MOR agonist activity, [35S]GTPγS binding to Gαo, 0.1 μM / MOR agonist activity, [35S]GTPγS binding to Gαo, 1 μM: striatal membranes; for MOR agonist activity, [35S]GTPγS binding to Gαo, 1 μM + BFNA: 1 μM compound + 1 μM β-funaltrexamine; for MOR agonist activity, [35S]GTPγS binding to Gαo, 1 μM: 1 μM compound
T1 construct: from tissue; host or cells: striatal tissue (membrane preparation)
Procedure: To assess the mu opiate receptor (MOR) agonist activity of positive compounds from the FLNA screening, compounds were tested in a [^35S]GTPγS binding assay using striatal membranes. Our previous study has shown that in striatal membranes, activation of MOR leads to an increase in [^35S]GTPγS binding to Gαo (Wang et al., 2005 Neuroscience 135:247-261).
Striatal tissue was homogenized in 10 volumes of ice cold 25 mM HEPES buffer, pH 7.4, which contained 1 mM EGTA, 100 mM sucrose, 50 μg/ml leupeptin, 0.04 mM PMSF, 2 μg/ml soybean trypsin inhibitor and 0.2% 2-mercaptoethanol. The homogenates were centrifuged at 800×g for 5 minutes and the supernatants were centrifuged at 49,000×g for 20 minutes. The resulting pellets were suspended in 10 volume of reaction buffer, which contained 25 mM HEPES, pH 7.5, 100 mM NaCl, 50 μg/ml leupeptin, 2 μg/ml soybean trypsin inhibitor, 0.04 mM PMSF and 0.02% […].
The resultant striatal membrane preparation (200 μg) was admixed and maintained (incubated) at 30° C. for 5 minutes in reaction buffer as above that additionally contained 1 mM MgCl2 and 0.5 nM [^35S]GTPγS (0.1 μCi/assay, PerkinElmer Life and Analytical Sciences) in a total volume of 250 μl and continued for 5 minutes in the absence or presence of 0.1-10 μM of an assayed compound of interest. The reaction was terminated by dilution with 750 μl of ice-cold reaction buffer that contained 20 mM MgCl2 and 1 mM EGTA and immediate centrifugation at 16,000×g for 5 minutes.
The resulting pellet was solubilized by sonicating for 10 seconds in 0.5 ml of immunoprecipitation buffer containing 0.5% digitonin, 0.2% sodium cholate and 0.5% NP-40. Normal rabbit serum (1 μl) was added to 1 ml of lysate and incubated at 25° C. for 30 minutes. Nonspecific immune complexes were removed by incubation with 25 μl of protein A/G-conjugated agarose beads at 25° C. for 30 minutes followed by centrifugation at 5,000×g at 4° C. for 5 minutes. The supernatant was divided and separately incubated at 25° C. for 30 minutes with antibodies raised against Gαo proteins (1:1,000 dilutions).
The immunocomplexes so formed were collected by incubation at 25° C. for 30 minutes with 40 μl of agarose-conjugated protein A/G beads and centrifugation at 5,000×g at 4° C. for 5 minutes. The pellet was washed and suspended in buffer containing 50 mM Tris-HCl, pH 8.0, and 1% NP-40. The radioactivity in the suspension was determined by liquid scintillation spectrometry. […] DAMGO (H-Tyr-D-Ala-Gly-N-MePhe-Gly-OH; 1 or 10 μM) was used as a positive control.

[1] = biological target: Bn-VAKGL pentapeptide of filamin A (FLNA) (Homo sapiens, UniProt P21333); assay: FITC-NLX-based FLNA screening assay (FLNA peptide binding assay); conditions: 10 nM FITC-NLX; for Percent inhibition of FITC-NLX binding, 0.01 μM: 0.01 μM compound; for Percent inhibition of FITC-NLX binding, 0.1 μM: 0.1 μM compound; for Percent inhibition of FITC-NLX binding, 1 μM: 1 μM compound
Procedure: The final assay volume is 100 μl.
Compounds are tested in triplicate or quadruplicate.

T1 sequence (P33535 whole entry): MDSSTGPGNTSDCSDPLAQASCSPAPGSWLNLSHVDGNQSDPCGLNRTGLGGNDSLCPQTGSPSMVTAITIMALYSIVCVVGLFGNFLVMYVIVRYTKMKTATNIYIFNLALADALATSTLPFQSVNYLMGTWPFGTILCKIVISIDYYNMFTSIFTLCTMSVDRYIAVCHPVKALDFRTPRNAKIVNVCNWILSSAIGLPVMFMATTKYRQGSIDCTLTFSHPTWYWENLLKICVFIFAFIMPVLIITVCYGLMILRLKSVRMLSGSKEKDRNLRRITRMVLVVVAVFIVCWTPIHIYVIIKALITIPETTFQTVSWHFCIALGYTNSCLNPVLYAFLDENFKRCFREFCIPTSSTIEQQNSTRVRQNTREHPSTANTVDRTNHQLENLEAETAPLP

Row | SMILES | MOR agonist activity, [35S]GTPγS binding to Gαo, 0.1 μM (mu opiate receptor (MOR)) [%] | MOR agonist activity, [35S]GTPγS binding to Gαo, 1 μM + BFNA (mu opiate receptor (MOR)) [%] | MOR agonist activity, [35S]GTPγS binding to Gαo, 1 μM (mu opiate receptor (MOR)) [%] | Percent inhibition of FITC-NLX binding, 0.01 μM [1] [%] | Percent inhibition of FITC-NLX binding, 0.1 μM [1] [%] | Percent inhibition of FITC-NLX binding, 1 μM [1] [%]
1 | COc1ccc(C(=O)CC2c3c(cc4c(c3OC)OCO4)CC[N+]2(C)C)cc1C.[I-] (stereo not drawn) [B0021] | 126.9 | 42.9 | 256.4 | 32.5 | 43.1 | 47.6
2 | COc1cccc(OC)c1C(=O)CC1c2c(cc3c(c2OC)OCO3)CC[N+]1(C)C.[I-] (stereo not drawn) [B0023] | 166.1 | 28.4 | 245.3 | 28.5 | 37.8 | 46.4
3 | COc1ccc(C(=O)CC2c3c(cc4c(c3OC)OCO4)CC[N+]2(C)C)cc1 (stereo not drawn) [B0024] | 155.8 | 20.2 | 285.9 | 34.8 | 43.4 | 47.7
4 | COc1ccccc1C(=O)CC1c2c(cc3c(c2OC)OCO3)CC[N+]1(C)C (stereo not drawn) [B0025] | 159.6 | 137.7 | 234.6 | 41.7 | 49.4 | 56.6
5 | COc1ccc(C(=O)CC2c3c(cc4c(c3OC)OCO4)CC[N+]2(C)C)cc1OC.[I-] (stereo not drawn) [B0026] | 152.0 | 28.8 | 233.3 | 41.1 | 43.3 | 48.2
6 | COc1ccc(C(=O)CC2c3c(cc4c(c3OC)OCO4)CC[N+]2(C)C)c(F)c1.[I-] (stereo not drawn) [B0027] | 140.9 | 21.6 | 266.9 | 40.2 | 46.7 | 49.8
7 | COc1c2c(cc3c1C(CC(=O)CCc1ccc(O)cc1)[N+](C)(C)CC3)OCO2.[I-] (stereo not drawn) [B0028] | 199.1 | 55.0 | 357.7 | 38.2 | 42.8 | 49.1
8 | COc1ccc(CC(=O)CC2c3c(cc4c(c3OC)OCO4)CC[N+]2(C)C)c(OC)c1 (stereo not drawn) [B0029] | 171.9 | 17.6 | 210.3 | 33.4 | 42.9 | 50.2
9 | COc1ccccc1CC(O)CC1c2c(cc3c(c2OC)OCO3)CCN1C (stereo not drawn) [B0030] | 107.2 | 90.1 | 276.1 | 47.0 | 50.5 | 57.6
10 | COc1c2c(cc3c1C(CC(=O)Cc1ccccc1C)[N+](C)(C)CC3)OCO2 (stereo not drawn) [B0031] | 210.8 | 28.8 | 272.0 | 36.2 | 44.2 | 50.5
11 | COc1ccccc1CC(O)CC1c2c(cc3c(c2OC)OCO3)CC[N+]1(C)C.[I-] (stereo not drawn) [B0032] | 221.1 | 15.6 | 297.7 | 45.1 | 51.3 | 48.9
12 | COc1ccc(C(=O)CC2c3c(cc4c(c3OC)OCO4)CC[N+]2(C)C)c(O)c1.[I-] (stereo not drawn) [B0033] | 149.3 | 41.9 | 188.9 | 42.1 | 46.8 | 49.4
13 | COc1cccc(CCC(=O)CC2c3c(cc4c(c3OC)OCO4)CC[N+]2(C)C)c1 (stereo not drawn) [B0034] | 122.5 | 41.8 | 235.2 | 49.1 | 54.2 | 59.1
14 | COc1cc(OC)cc(C(=O)CC2c3c(cc4c(c3OC)OCO4)CC[N+]2(C)C)c1.[I-] (stereo not drawn) [B0035] | 188.0 | 74.2 | 248.7 | 45.4 | 44.7 | 51.0
15 | COc1cc(C(=O)CC2c3c(cc4c(c3OC)OCO4)CC[N+]2(C)C)cc(OC)c1OC (stereo not drawn) [B0037] | 119.8 | 106.2 | 186.0 | 47.4 | 53.0 | 52.4
16 | COc1cccc(CC(=O)CC2c3c(cc4c(c3OC)OCO4)CC[N+]2(C)C)c1OC (stereo not drawn) [B0038] | 147.5 | 117.1 | 205.3 | 41.2 | 50.1 | 57.0
